According to patent US8329726B2, “Inhibitors of VEGF receptor and HGF receptor signaling” (MethylGene Inc., priority 2005, dated 2012):

Tests used:
DU145 = DU145 scattering inhibition (HGF dependent scattering); format: cell-based; conditions: Homo sapiens, DU-145; HGF dependent scattering, DU145 cells; read-out: DU145 SCATTERING INHIB IC50
Source text: (§1) HGF has well known activity in terms of inducing scattering and migration (wound healing) (Wells et al., Cell Motil Cytoskeleton. 2005 November 62(3):180-94; Miura et al., Urology 2001 December 58(6):1064-9; Nishimura et al., Int J Urol. 1998 May 5(3):276-81; Wang et al., Mol Cancer Ther. 2003 November; 2(11):1085-92; and Christensen et al., Cancer Res. 2003 Nov. 1; 63(21):7345-55).

VEGF receptor KDR = target: T1, VEGF receptor KDR (Homo sapiens, UniProt P35968); assay: In vitro receptor tyrosine kinase assay (DELFIA), VEGF receptor KDR; format: biochemical; conditions: read-out: VEGFR IC50
T1 construct: made in house; host or cells: Sf9 cells (Spodoptera frugiperda), baculovirus
Protocol: In the case of VEGF receptor KDR a 1.6-kb cDNA corresponding to the catalytic domain of VEGFR2 or KDR (Genbank accession number AF035121 amino acid 806 to 1356) was cloned into the Pst I site of the pDEST20 Gateway vector (Invitrogen) for the production of a GST-tagged version of that enzyme.
The GST-VEGFR2806-1356 protein was expressed in […] (Spodoptera frugiperda) upon infection with recombinant baculovirus construct. […] Cell pellets were frozen at −80° C. until purification was performed.
The supernatant (cell extract) was used as starting material for purification of GST-VEGFR2806-1356.
The supernatant was loaded onto a GST-agarose column (Sigma) equilibrated with PBS pH 7.3. Following a four column volume (CV) wash with PBS pH 7.3+1% Triton X-100 and 4 CV wash with buffer B (50 mM Tris pH 8.0, 20% glycerol and 100 mM NaCl), bound proteins were step eluted with 5 CV of buffer B supplemented with 5 mM DTT and 15 mM glutathion. GST-VEGFR2806-1356 enriched fractions from this chromatography step were pooled based on U.V. trace i.e. fractions with high O.D.280. Final GST-VEGFR2806-1356 protein preparations concentrations were about 0.7 mg/ml with purity approximating 70%.
(§2) The coated plates were washed and stored at 4° C. […] After incubation, the kinase reactions were quenched with EDTA and the plates were washed.

[1] = target: T2, recombinant human c-Met/HGF receptor (Homo sapiens, UniProt P08581); assay: In vitro receptor tyrosine kinase assay (DELFIA), c-Met/HGF receptor; format: biochemical; conditions: read-out: CMET IC50
T2 construct: His tag (pBlueBacHis2A vector); made in house; host or cells: Hi-5 cells (Trichoplusia ni), baculovirus
Protocol: Cell pellets were frozen at −80° C. until purification was performed.
as §2

A549 = A549 wound healing inhibition (HGF dependent migration); format: cell-based; conditions: Homo sapiens, A549 cells, read-out: A549 WOUND HEALING INHIB IC50
Source text: as §1

T2 sequence (P08581 1078-1337): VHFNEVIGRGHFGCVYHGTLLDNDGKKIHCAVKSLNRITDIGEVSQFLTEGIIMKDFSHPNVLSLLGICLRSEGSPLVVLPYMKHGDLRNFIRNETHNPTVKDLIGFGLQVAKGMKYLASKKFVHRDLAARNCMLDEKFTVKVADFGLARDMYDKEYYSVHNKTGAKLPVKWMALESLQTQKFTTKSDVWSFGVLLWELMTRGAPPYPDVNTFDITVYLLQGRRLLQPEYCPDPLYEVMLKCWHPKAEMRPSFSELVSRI
T1 sequence (P35968 806-1356): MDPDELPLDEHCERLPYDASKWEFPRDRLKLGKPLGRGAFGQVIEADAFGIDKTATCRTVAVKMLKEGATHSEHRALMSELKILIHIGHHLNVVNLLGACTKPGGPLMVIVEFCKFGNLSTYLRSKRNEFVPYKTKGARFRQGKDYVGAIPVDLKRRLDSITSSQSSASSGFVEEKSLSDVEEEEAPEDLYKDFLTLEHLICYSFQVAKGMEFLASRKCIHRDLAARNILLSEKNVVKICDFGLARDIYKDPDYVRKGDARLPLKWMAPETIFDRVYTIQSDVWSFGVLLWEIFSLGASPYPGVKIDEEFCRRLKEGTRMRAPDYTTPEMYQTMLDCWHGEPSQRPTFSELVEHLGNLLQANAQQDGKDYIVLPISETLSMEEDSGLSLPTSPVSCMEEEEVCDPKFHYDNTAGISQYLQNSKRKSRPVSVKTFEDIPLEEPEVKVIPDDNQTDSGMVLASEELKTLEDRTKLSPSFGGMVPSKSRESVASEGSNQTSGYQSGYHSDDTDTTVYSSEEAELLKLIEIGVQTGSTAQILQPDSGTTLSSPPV

Compound | IC50 (DU145) | IC50 (VEGF receptor KDR) | IC50 [1] | IC50 (A549)
Cn1ccnc1-c1cc2nccc(Oc3ccc(NC(=O)CC(=O)NC4CCNCC4)cc3F)c2s1 | > 10000 nM | > 500 nM | > 500 nM | > 10000 nM
CCn1cnc(-c2cc3nccc(Oc4ccc(NC(=O)C5(C(=O)Nc6ccccc6F)CC5)cc4F)c3s2)c1 | < 1000 nM | < 50 nM | < 50 nM | < 1000 nM
COc1ccccc1NC(=O)CC(=O)Nc1ccc(Oc2ccnc3cc(-c4ccc(OCCCN(C)C)nc4)sc23)c(F)c1 | 1000 to 5000 nM | 250 to 500 nM | 50 to 250 nM | 1000 to 5000 nM
CN(C)CCn1cnc(-c2cc3nccc(Oc4ccc(NC(=O)CC(=O)N(C)c5ccccc5)cc4F)c3s2)c1 | < 1000 nM | < 50 nM | < 50 nM | < 1000 nM
CN(C)CCn1cnc(-c2cc3nccc(Oc4ccc(NC(=O)C5(C(=O)Nc6ccccc6)CC5)cc4F)c3s2)c1 | < 1000 nM | < 50 nM | < 50 nM | < 1000 nM
COc1ccccc1NC(=O)CC(=O)Nc1ccc(Oc2ccnc3cc(-c4cnc(N5CCOCC5)nc4)sc23)c(F)c1 | > 10000 nM | > 500 nM | > 500 nM | > 10000 nM
CN(C(=O)CC(=O)Nc1ccc(Oc2ccnc3cc(C(=O)N(C)N(C)C)sc23)c(F)c1)c1ccccc1 | > 10000 nM | > 500 nM | 250 to 500 nM | > 10000 nM
CN(C)CCn1cnc(-c2cc3nccc(Oc4ccc(NC(=O)C5(C(=O)Nc6ccccc6F)CC5)cc4F)c3s2)c1 | < 1000 nM | < 50 nM | < 50 nM | < 1000 nM
CCn1cc(-c2cc3nccc(Oc4ccc(NC(=O)CC(=O)Nc5ccccc5OC)cc4F)c3s2)nc1CN(C)C | < 1000 nM | < 50 nM | < 50 nM | < 1000 nM
COc1ccccc1NC(=O)CC(=O)Nc1ccc(Oc2ccnc3cc(-c4ccc(OCCCN(C)C)c(OCCCN(C)C)c4)sc23)c(F)c1 | > 10000 nM | 50 to 250 nM | < 50 nM | > 10000 nM
COc1ccccc1NC(=O)CC(=O)Nc1ccc(Oc2ccnc3cc(-c4cccc(OCCCNC(=N)N)c4)sc23)c(F)c1 | > 10000 nM | > 500 nM | 50 to 250 nM | 1000 to 5000 nM
CN(C)CCCn1cnc(-c2cc3nccc(Oc4ccc(NC(=O)CC(=O)N(C)c5ccccc5)cc4F)c3s2)c1 | < 1000 nM | < 50 nM | < 50 nM | < 1000 nM
CN(C)CC/C=C\c1cc2nccc(Oc3ccc(NC(=O)CC(=O)N(C)c4ccccc4)cc3F)c2s1 | 1000 to 5000 nM | 50 to 250 nM | 50 to 250 nM | 1000 to 5000 nM
Cn1ccnc1-c1cc2nccc(Oc3ccc(NC(=O)CS(=O)(=O)c4ccc(F)cc4)cc3F)c2s1 | 1000 to 5000 nM | 50 to 250 nM | 250 to 500 nM | 1000 to 5000 nM
CCn1cnc(-c2cc3nccc(Oc4ccc(NC(=O)CC(=O)N(C)c5ccccc5)cc4F)c3s2)c1 | < 1000 nM | < 50 nM | < 50 nM | < 1000 nM
O=C(Nc1ccc(Oc2ccnc3cc(-c4cn(CCCN5CCCC5)cn4)sc23)c(F)c1)C1(C(=O)Nc2ccccc2F)CC1 | < 1000 nM | < 50 nM | < 50 nM | < 1000 nM
CN1CCN(Cc2ccc(-c3cc4nccc(Oc5ccc(NC(=O)CC(=O)Nc6ccccc6)cc5F)c4s3)cc2)CC1 | < 1000 nM | < 50 nM | < 50 nM | 1000 to 5000 nM
CN(C(=O)CC(=O)Nc1ccc(Oc2ccnc3cc(-c4cn(CCCN5CCCC5)cn4)sc23)c(F)c1)c1ccccc1 | < 1000 nM | < 50 nM | < 50 nM | 1000 to 5000 nM
CN1CCN(CCN(C)Cc2ccc(-c3cc4nccc(Oc5ccc(NC(=O)CC(=O)N(C)c6ccccc6)cc5F)c4s3)cc2)CC1 | < 1000 nM | < 50 nM | < 50 nM | 1000 to 5000 nM
O=C(Nc1ccc(Oc2ccnc3cc(-c4cn(CCN5CCCC5)cn4)sc23)c(F)c1)C1(C(=O)Nc2ccccc2F)CC1 | < 1000 nM | < 50 nM | < 50 nM | 1000 to 5000 nM
COc1ccccc1NC(=O)C1(C(=O)Nc2ccc(Oc3ccnc4cc(-c5cn(CCN6CCCC6)cn5)sc34)c(F)c2)CC1 | < 1000 nM | < 50 nM | < 50 nM | < 1000 nM

Compound | IC50 (DU145) | IC50 (VEGF receptor KDR) | IC50 [1] | IC50 (A549)
CN(C(=O)CC(=O)Nc1ccc(Oc2ccnc3cc(-c4cn(C)cn4)sc23)c(F)c1)c1ccccc1F | 1000 to 5000 nM | < 50 nM | 50 to 250 nM | < 1000 nM
CN1CCN(Cc2ccc(-c3cc4nccc(Oc5ccc(NC(=O)CC(=O)N(C)c6ccccc6)cc5F)c4s3)cc2)CC1 | < 1000 nM | < 50 nM | 50 to 250 nM | 1000 to 5000 nM
O=C(O)Cn1cnc(-c2cc3nccc(Oc4ccc(NC(=O)CC(=O)Nc5ccccc5)cc4F)c3s2)c1 | > 10000 nM | < 50 nM | < 50 nM | > 10000 nM
CC(C)n1cnc(-c2cc3nccc(Oc4ccc(NC(=O)CC(=O)Nc5nccs5)cc4F)c3s2)c1 | 1000 to 5000 nM | < 50 nM | < 50 nM | 1000 to 5000 nM
CN1CC=C(c2cc3nccc(Oc4ccc(NC(=O)CC(=O)N(C)c5ccccc5)cc4F)c3s2)CC1 | 1000 to 5000 nM | 50 to 250 nM | < 50 nM | 1000 to 5000 nM
CC(C)n1cnc(-c2cc3nccc(Oc4ccc(NC(=O)C5CCN(c6ccccc6)C5=O)cc4F)c3s2)c1 (centres unmarked) | < 1000 nM | < 50 nM | < 50 nM | < 1000 nM
CC(C)n1cnc(-c2cc3nccc(Oc4ccc(NC(=O)C5CC(=O)N(c6ccccc6)C5)cc4F)c3s2)c1 (centres unmarked) | > 10000 nM | > 500 nM | 250 to 500 nM | 1000 to 5000 nM
CCn1cnc(-c2cc3nccc(Oc4ccc(NC(=O)CC(=O)Nc5ccccc5C(F)(F)F)cc4F)c3s2)c1 | < 1000 nM | < 50 nM | 50 to 250 nM | 1000 to 5000 nM
CN(C)CCn1cnc(-c2cc3nccc(Oc4ccc(NC(=O)CC(=O)Nc5ccccc5)cc4F)c3s2)c1 | < 1000 nM | < 50 nM | < 50 nM | < 1000 nM
CN(c1ccc(NC(=O)C2(C(=O)Nc3ccccc3)CC2)cc1F)c1ccnc2ccsc12 | 1000 to 5000 nM | > 500 nM | 250 to 500 nM | 1000 to 5000 nM
O=C(Cn1cnc(-c2cc3nccc(Oc4ccc(NC(=O)CC(=O)Nc5ccccc5)cc4F)c3s2)c1)NCCCN1CCCC1 | 5000 to 10000 nM | < 50 nM | < 50 nM | 1000 to 5000 nM
CCN(CC)CCn1cnc(-c2cc3nccc(Oc4ccc(NC(=O)CC(=O)N(C)c5ccccc5)cc4F)c3s2)c1 | < 1000 nM | < 50 nM | 50 to 250 nM | < 1000 nM
CN1CCN(CCN(C)Cc2cccc(-c3cc4nccc(Oc5ccc(NC(=O)CC(=O)N(C)c6ccccc6)cc5F)c4s3)c2)CC1 | < 1000 nM | < 50 nM | 50 to 250 nM | < 1000 nM
O=C(Nc1ccc(Oc2ccnc3cc(-c4cn(CCCN5CCCC5)cn4)sc23)c(F)c1)C1CCN(c2ccccc2)C1=O (centres unmarked) | < 1000 nM | < 50 nM | < 50 nM | < 1000 nM
Cn1cnc(-c2cc3nccc(Oc4ccc(NC(=O)C5CCN(c6ccccc6)C5=O)cc4F)c3s2)c1 (centres unmarked) | < 1000 nM | < 50 nM | < 50 nM | < 1000 nM
CN(C)CCn1cnc(-c2cc3nccc(Oc4ccc(NC(=O)CC(=O)Nc5ccccc5F)cc4F)c3s2)c1 | < 1000 nM | < 50 nM | < 50 nM | < 1000 nM
Cn1cnc(-c2cc3nccc(Oc4ccc(NC(=O)C5CCN(c6ccc(F)cc6)C5=O)cc4F)c3s2)c1 (centres unmarked) | < 1000 nM | < 50 nM | < 50 nM | < 1000 nM
CN1CCN(CCN(C)Cc2ccc(-c3cc4nccc(Oc5ccc(NC(=O)CC(=O)Nc6cccc(F)c6)cc5F)c4s3)cc2)CC1 | 1000 to 5000 nM | < 50 nM | 50 to 250 nM | 1000 to 5000 nM
CN1CCN(CCN(C)Cc2ccc(-c3cc4nccc(Oc5ccc(NC(=O)CC(=O)Nc6ccc(F)cc6)cc5F)c4s3)cc2)CC1 | < 1000 nM | < 50 nM | < 50 nM | < 1000 nM
CCn1cnc(-c2cc3nccc(Oc4ccc(NC(=O)N5CCN(c6ccccc6)C5=O)cc4F)c3s2)c1 | < 1000 nM | < 50 nM | < 50 nM | < 1000 nM
